Test results published in patent publication US20250195474A1, “Piezo Inhibition for Wound Healing” (priority 2022, published 2025).
No end group written: not given here.

Assays:
mouse adipocytes [1] = experiment: Proliferation and apoptosis assays for treatment toxicity; format: cell-based; conditions: 0.5x, 1x, 2x standard concentration [500 nm], 7 days
Protocol: P1i and P2i treated adipocytes (and fibroblast controls) were examined for treatment toxicity using proliferation and apoptosis assays. […] Then, cells were treated with either 0.5×, 1×, or 2× the standard concentration of Piezo1 or Piezo2 inhibitors [500 nm]. After 7 days of treatment, cells were fixed or harvested for analysis of potential toxicity. For proliferation, EdU (5-ethynyl-2′-deoxyuridine) incorporation in vitro was investigated on differentiated adipocytes and undifferentiated fibroblasts using the Click-iT™ EdU Cell Proliferation Kit for Imaging, Alexa Fluor™ 488 dye (ThermoFisher, Cat: C10337). Proliferation was detected according to the manufacturer's guidelines. To evaluate apoptosis, the Annexin V Apoptosis Detection Kit-AF647 (Abcam, Cat: 219919) was used according to the manufacturer's guidelines.

existing scars = experiment: Visium spatial transcriptomic analysis of treated existing scars; format: in vivo, mouse
Protocol: Wound specimens were rapidly harvested and flash frozen in OCT. Using the Visium Tissue Optimization Slide and Reagent Kit, permeabilization time was optimized at a thickness at 10 μm per section and 37 minutes for mouse tissue. Following cryo-sectioning at −20 degrees onto gene expression slides the expression slide and reagent kit was used to produce sequencing libraries. The libraries were then sequences using NextSeq (Illumina). Following demultiplication the raw FASTQ files and histology images were processed by sample with the Space Ranger software for genome alignment. The raw spaceranger output files for each sample was then read into a Seurat class object in R using Seurat's Load10× function. Data was normalized using the SCT transform with default parameters. To ascertain the integration of our scRNAseq and Visium spatial analysis we employed the FindTransferAnchors( ) function from Seurat, which allowed the alignment of data using the two datasets. This cross-platform linkage is performed serially in an unconstrained and constrained fashion.
To further analyze the spatial gene expression following scar rescue, the Visium platform was applied to scars treated with P1i or PBS at POD 30, 75, and 120 (FIG. 9A). Similar to analysis of acute wound healing, the epidermal, dermal, and hypodermal layers were easily elucidated from the spatial transcriptomic analysis in scars at POD 60 (FIG. 9B). Furthermore, the expected cell types including fibroblasts, immune, epithelial, and adipocytes were identified by spatial expression of representative genes (FIG. 36A).

TRPC1 = TRPC1 (Homo sapiens, UniProt P48995); conditions: cited from earlier work
Chain of TRPC1 (P48995 whole entry, species assumed): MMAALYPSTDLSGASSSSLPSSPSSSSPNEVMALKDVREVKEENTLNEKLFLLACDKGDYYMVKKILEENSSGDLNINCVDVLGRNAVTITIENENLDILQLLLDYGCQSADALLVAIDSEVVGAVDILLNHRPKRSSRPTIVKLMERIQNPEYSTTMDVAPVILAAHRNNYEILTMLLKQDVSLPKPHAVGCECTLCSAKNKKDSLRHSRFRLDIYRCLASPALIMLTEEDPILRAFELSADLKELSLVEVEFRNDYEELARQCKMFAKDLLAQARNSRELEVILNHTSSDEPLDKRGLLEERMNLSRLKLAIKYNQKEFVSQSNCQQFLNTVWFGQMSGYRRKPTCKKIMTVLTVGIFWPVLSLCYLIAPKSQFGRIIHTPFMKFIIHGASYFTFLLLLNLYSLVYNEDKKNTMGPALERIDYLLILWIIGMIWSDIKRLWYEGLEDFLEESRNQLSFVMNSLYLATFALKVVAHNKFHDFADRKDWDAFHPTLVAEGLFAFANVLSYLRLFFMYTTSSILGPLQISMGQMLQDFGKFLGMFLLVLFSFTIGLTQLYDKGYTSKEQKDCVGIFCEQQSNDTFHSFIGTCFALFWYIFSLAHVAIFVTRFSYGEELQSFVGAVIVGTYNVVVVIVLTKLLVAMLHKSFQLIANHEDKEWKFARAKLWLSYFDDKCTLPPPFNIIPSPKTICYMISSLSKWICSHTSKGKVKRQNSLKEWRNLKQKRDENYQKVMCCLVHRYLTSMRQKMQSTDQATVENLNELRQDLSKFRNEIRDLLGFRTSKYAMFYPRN

mouse adipocytes [2] = experiment: Mouse adipocyte-populated collagen I hydrogels with or without mechanical stretch; conditions: 10% equibiaxial strain, 7 days; GsMTx4 500 nM, D-GsMTx4 500 nM, PF573228 10 uM, Verteporfin 300 nM
human adipocytes = experiment: Human adipocyte-populated collagen I hydrogels with or without mechanical stretch; conditions: 10% equibiaxial strain, 7 days

## GsMTx4 (GCLEFWWKCNPNDDKCCRPKLKCSKLFKLCNFSF; ends and bridges not checked; cysteine pairing not given here; UniProt Q7YT39 47-80, looked up) [P1i]
Mouse adipocytes [1]
  percentage of cells positive for EdU, annexin V or DAPI by FACS: None of the markers' expression was significantly different
Existing scars; POD 60, 105 and 150, vs PBS
  spatially identified adipocytes: greater in number
Existing scars; existing scars
  differential interaction maps (Visium): larger number of interactions between adipocytes and epithelial cells
  differentially expressed genes during scar rescue: high expression of genes associated with the epidermis
Existing scars; existing scars, all timepoints
  spatial expression of Piezo1, Piezo2, Yap1 and Ptk2: observed mostly at the basal aspects of the wounds
TRPC1
  block of TRPC1: blocks
Mouse adipocytes [2]
  stretch-induced phenotypic switch (losing adiponectin, expressing Col1): abrogated
Human adipocytes
  stretch-induced hypertrophy of human adipocytes: reversed
